Measured values reported in ChEMBL document CHEMBL1122660 (J Med Chem, 1984).

How the values were obtained:
[1] = test system: P388; test: Optimum dose (mg/kg) against P388 leukemic cells; assay type: functional, Mus musculus
[2] = test system: P388; test: Maximum percent T/C (antitumor activity) against P388 leukemia cells for Mitomycin C; assay type: functional, Mus musculus
[3] = test system: P388; test: Maximum percent T/C (antitumor activity) against P388 leukemia cells; assay type: functional, Mus musculus
[4] = test system: P388; test: Minimum effective dose against P388 leukemic cells; assay type: functional; conditions: Mus musculus, read-out: MED
[5] = test system: P388; test: Ratio of optimal dose (OD) and minimum effective dose (MED) required for antitumor activity in mice bearing P-388 lymphocytic leukemia; assay type: functional, Mus musculus
[6] = species on record: Mus musculus; test: Percentage change in WBC at optimum dose on day 3; assay type: functional
[7] = Partition coefficient between 1-octanol and water containing phosphate buffer at pH 7.4; assay type: physicochemical; conditions: 1-octanol/water containing phosphate buffer

| Compound | OD [1] [mg/kg] | T/C [2] [%] | T/C [3] [%] | minimal effective dose [4] [mg/kg] | Therapeutic ratio [5] | Change [6] [%] | logD [7] |
| --- | --- | --- | --- | --- | --- | --- | --- |
| COC12[C@@H]3N[C@@H]3CN1C1=C(C(=O)C(Nc3nnc(C)s3)=C(C)C1=O)[C@@H]2COC(N)=O (stereo not given in full) | 25.6 | 267 | 222 | 0.8 | 32 | -32 | – |
| COC12[C@@H]3N[C@@H]3CN1C1=C(C(=O)C(Nc3nc4c(Cl)cccc4s3)=C(C)C1=O)[C@@H]2COC(N)=O (stereo not given in full) | 25.6 | 319 | 144 | 0.4 | 64 | – | – |
| COC12[C@@H]3N[C@@H]3CN1C1=C(C(=O)C(Nc3cccc(C#N)c3)=C(C)C1=O)[C@@H]2COC(N)=O (stereo not given in full) | 12.8 | 156 | 172 | 0.2 | 64 | – | 0.73 |
| COC12[C@@H]3N[C@@H]3CN1C1=C(C(=O)C(Nc3ccc(F)cc3)=C(C)C1=O)[C@@H]2COC(N)=O (stereo not given in full) | 12.8 | 278 | 167 | – | 32 | – | 1.44 |
| COC12[C@@H]3N[C@@H]3CN1C1=C(C(=O)C(Nc3ccccc3)=C(C)C1=O)[C@@H]2COC(N)=O (stereo not given in full) | 12.8 | 200 | 161 | 1.6 | 8 | – | 1.3 |
| COC12[C@@H]3N[C@@H]3CN1C1=C(C(=O)C(Nc3nc4ccccc4s3)=C(C)C1=O)[C@@H]2COC(N)=O (stereo not given in full) | 25.6 | 325 | 150 | 12.8 | 2 | – | – |
| COc1cc(NC2=C(C)C(=O)C3=C(C2=O)[C@H](COC(N)=O)C2(OC)[C@@H]4N[C@@H]4CN32)cc(OC)c1 (stereo not given in full) | 6.4 | 278 | 161 | 0.4 | 16 | – | – |
| COC12[C@@H]3N[C@@H]3CN1C1=C(C(=O)C(Nc3ccc(C#N)cc3)=C(C)C1=O)[C@@H]2COC(N)=O (stereo not given in full) | 3.2 | 233 | 150 | 0.8 | 4 | – | 0.72 |
| COC12[C@@H]3N[C@@H]3CN1C1=C(C(=O)C(Nc3cccc(Cl)c3)=C(C)C1=O)[C@@H]2COC(N)=O (stereo not given in full) | 12.8 | 156 | 139 | 6.4 | 2 | – | 2.01 |
| COC12[C@@H]3N[C@@H]3CN1c1c(O)c(C)c(N=C3C=CC(=S)C=C3)c(O)c1[C@@H]2COC(N)=O (stereo not given in full) | 25.6 | 250 | 131 | 1.6 | 16 | – | 1.69 |
| COC12[C@@H]3N[C@@H]3CN1c1c(O)c(C)c(/N=C3\C=CC(=O)C=C3C)c(O)c1[C@@H]2COC(N)=O (stereo not given in full) | 25.6 | 200 | 244 | 0.4 | 64 | -34 | – |
| COC12[C@@H]3N[C@@H]3CN1C1=C(C(=O)C(Nc3cccc(NC(C)=O)c3)=C(C)C1=O)[C@@H]2COC(N)=O (stereo not given in full) | 25.6 | 211 | 231 | 0.2 | 128 | – | 0.33 |
| COC12[C@@H]3N[C@@H]3CN1C1=C(C(=O)C(Nc3ccc4c(c3)OCO4)=C(C)C1=O)[C@@H]2COC(N)=O (stereo not given in full) | 3.2 | 211 | 167 | < 0.2 | >16 | – | – |
| COc1cc(/N=C2/C(=O)C3=C(C(O)=C2C)N2C[C@H]4N[C@H]4C2(OC)[C@H]3COC(N)=O)c2ncccc2c1 (stereo not given in full) | 6.4 | 178 | 178 | 0.4 | 16 | – | – |
| COC12[C@@H]3N[C@@H]3CN1C1=C(C(=O)C(Nc3ccc4[nH]ncc4c3)=C(C)C1=O)[C@@H]2COC(N)=O (stereo not given in full) | 25.6 | 250 | 206 | 0.2 | 128 | – | – |
| [H][C@@]12CN3c4c(O)c(C)c(/N=C5C=C/C(=N/C(N)=O)C=C\5)c(O)c4[C@H](COC(N)=O)C3(OC)[C@]1([H])N2 (stereo not given in full) | 25.6 | 278 | 194 | 1.6 | 16 | – | 0 |
| COC12[C@@H]3N[C@@H]3CN1C1=C(C(=O)C(Nc3cccc(O)c3)=C(C)C1=O)[C@@H]2COC(N)=O (stereo not given in full) | 12.8 | 211 | 356 | < 0.2 | >64 | – | 0.63 |
| COC12[C@@H]3N[C@@H]3CN1C1=C(C(=O)C(Nc3ccc([N+](=O)[O-])cc3)=C(C)C1=O)[C@@H]2COC(N)=O (stereo not given in full) | 3.2 | 233 | 172 | < 0.2 | >16 | – | 1.02 |
| COc1ccccc1/N=C1/C(=O)C2=C(C(O)=C1C)N1C[C@H]3N[C@H]3C1(OC)[C@H]2COC(N)=O (stereo not given in full) | 25.6 | 206 | 200 | 0.4 | 128 | – | – |
| COC12[C@@H]3N[C@@H]3CN1C1=C(C(=O)C(Nc3nc4ccc([N+](=O)[O-])cc4s3)=C(C)C1=O)[C@@H]2COC(N)=O (stereo not given in full) | 25.6 | 156 | 128 | 25.6 | 1 | – | – |
| COC12[C@@H]3N[C@@H]3CN1C1=C(C(=O)C(Nc3ccc(I)cc3)=C(C)C1=O)[C@@H]2COC(N)=O (stereo not given in full) | 25.6 | 200 | 128 | 25.6 | 1 | – | 2.42 |
| COC12[C@@H]3N[C@@H]3CN1C1=C(C(=O)C(Nc3cccc4nsnc34)=C(C)C1=O)[C@@H]2COC(N)=O (stereo not given in full) | 12.8 | 250 | 161 | 0.8 | 32 | – | – |
| COC12[C@@H]3N[C@@H]3CN1C1=C(C(=O)C(Nc3cccc(C)c3)=C(C)C1=O)[C@@H]2COC(N)=O (stereo not given in full) | 12.8 | 319 | 181 | 0.4 | 32 | – | 1.83 |
| COc1cccc(NC2=C(C)C(=O)C3=C(C2=O)[C@H](COC(N)=O)C2(OC)[C@@H]4N[C@@H]4CN32)c1 (stereo not given in full) | 12.8 | 319 | 181 | 0.2 | 64 | – | 1.28 |
| COC1=C/C(=N/c2c(C)c(O)c3c(c2O)[C@H](COC(N)=O)C2(OC)[C@@H]4N[C@@H]4CN32)C=CC1=N (stereo not given in full) | 25.6 | 311 | 239 | 1.6 | 16 | – | – |
| COC12[C@@H]3N[C@@H]3CN1C1=C(C(=O)C(Nc3ccc(S(N)(=O)=O)cc3)=C(C)C1=O)[C@@H]2COC(N)=O (stereo not given in full) | 25.6 | 213 | 225 | 0.2 | 128 | – | -0.52 |
| COc1ccc(NC2=C(C)C(=O)C3=C(C2=O)[C@H](COC(N)=O)C2(OC)[C@@H]4N[C@@H]4CN32)cc1N (stereo not given in full) | 6.4 | 311 | 228 | 0.2 | 32 | – | – |
